# In patent publication US8293775B2, “Benzoxazolone derivatives, processes for preparing them and their uses” (UCB Pharma, S.A., priority 2004, dated 2012):
# Test system: 6-OHDA rat model
# Experiment: Hemi-parkinsonian (6-OHDA lesioned) rat model: prolongation of L-DOPA-induced contralateral rotations
# Conditions: second hour post administration (61-120 min); L-DOPA 50 mg/kg i.p. with vehicle (DMSO, i.p.); male Sprague-Dawley rats
smiles,measurement,value
"N[C@@H](Cc1ccc(O)c(O)c1)C(=O)O [L-Dopa, L-3,4-dihydroxyphenylalanine]",total number of rotations observed with L-Dopa alone,less than 50 turns
